Data: article PMC10387993, “New pyrimidine-N-β-D-glucosides: synthesis, biological evaluation, and molecular docking investigations” (Turkish Journal of Chemistry, 2023)
≈ marks a conversion by molar mass, not a printed value. Like-named read-outs stand apart in the source and are kept apart here.

Columns and labels:
Format in all cases: cell-based
[1] = LDH cytotoxic activity assay, HT29; settings: human, HT29 cells
Procedure: (§1) The cell lines were cultured in a cell medium (Dulbecco’s modified eagle’s or RPMI 1640) enriched with 10% (v/v) fetal bovine serum and 2% (v/v) Penicillin-Streptomycin (10,000 U/mL). First, old medium was removed out of the flask when the cells reached approximately 80% confluence. Next, cells were taken from the flasks surface using trypsin-EDTA solution and then subjected to centrifugation. Following, the cell pellet was suspended with fresh media and was inoculated into wells.
(§2) Approximately 5 × 10^3 cells in 100 μL were placed into 96-well plates as triplicates and treated with 25, 50, 75, and 100 μg/mL concentrations of test compounds at 37 °C with 5% CO2 for 24 h. LDH activity was obtained by determining absorbance at 492–630 nm using a microplate reader.

E. coli ATCC 25922 = assay: Microdilution MIC assay; settings: Escherichia coli, ATCC25922; E. coli ATCC 25922, 24 h at 35 °C
Procedure: (§3) MIC values of the compounds against bacterial strains were determined on the basis of a microwell dilution method. […] […]. Growth of microorganisms was determined visually after incubation for 24 h at 35 °C. The lowest concentration at which there was no visible growth (turbidity) was taken as the MIC.

[2] = test system: P. aeruginosa AGME ATCC 27853; assay: Microdilution MIC assay; settings: Pseudomonas aeruginosa, ATCC27853; P. aeruginosa AGME ATCC 27853, 24 h at 35 °C
Procedure: as §3

[3] = test system: S. aureus MSSA ATCC 29213; assay: Microdilution MIC assay; settings: S. aureus MSSA ATCC 29213, 24 h at 35 °C
Procedure: as §3

[4] = test system: S. aureus MRSA ATCC 46300; assay: Microdilution MIC assay; settings: S. aureus MRSA ATCC 46300, 24 h at 35 °C
Procedure: as §3

E. coli ESBL ATCC 35218 = assay: Microdilution MIC assay; settings: Escherichia coli, ATCC35218; E. coli ESBL ATCC 35218, 24 h at 35 °C
Procedure: as §3

S. mutans ATCC 35668 = assay: Microdilution MIC assay; settings: Streptococcus mutans, ATCC35668, 24 h, S. mutans ATCC 35668, 24 h at 35 °C; read-out: MIC
Procedure: as §3

[5] = LDH cytotoxic activity assay, HeLa; settings: human, HeLa cells
Procedure: as §1, §2

[6] = LDH cytotoxic activity assay, C6; settings: rat, C6 glioma cells
Procedure: as §1, §2

MCF7 = assay: cells; settings: Homo sapiens
Procedure: as §1
(§4) A cell suspension containing approximately 1 × 10^4 cells in 100 μL was seeded into the wells of 96-well culture plates. […]. The final volume of the wells was set to 200 μL by medium. Cell proliferation assay was evaluated by MTT (yellow tetrazolium MTT (3-(4,5-dimethylthiazolyl-2)-2,5-diphenyltetrazolium bromide) methods. Briefly, an MTT stock solution (5 mg of MTT/mL of distilled water) was filtered and kept at −20 °C until use. The cells were exposed to an MTT reagent (consisting of one parts of MTT stock solutions and nine parts of fresh RPMI 1640 without phenol red) for 4 h to form MTT formazan dye followed by the dye dissolved in DMSO with Sorenson’s buffer for 30 min at room temperature and then the plate was measured at 560 nm, with 690 nm as a reference interval, using a microplate reader. Each experiment was repeated at least three times for each cell line.
(§5) IC50 value is a concentration that inhibits half of the cells in vitro. The half maximal inhibitory concentration (IC50) of the test and control compounds was calculated using XLfit5 or excel spreadsheet and represent in μM at 95% confidence intervals. The proliferation assay results were expressed as the percent inhibition according to the following formula: % Inhibition = [1 - (Absorbance of Treatments /Absorbance of DMSO) × 100]. Three dose response parameters (GI50, TGI, LC50) were calculated according to the following formulas using the absorbance measurements of time zero (Tz), control growth (C), and test growth in the presence of drug (Ti). Growth inhibition of 50% (GI50) was calculated from [(Ti-Tz)/(C-Tz)] × 100 = 50, which is the drug concentration resulting in a 50% reduction in the net growth increase in control cells during the drug incubation. The drug concentration resulting in total growth inhibition (TGI) was calculated from Ti = Tz. The LC50 indicating a net loss of cells following treatment was calculated from [(Ti-Tz)/Tz] × 100 = −50.

A549 = assay: cells; settings: Homo sapiens
Procedure: as §1, §4, §5

HT29 = assay: cells; settings: Homo sapiens
Procedure: as §1, §4, §5

C6 (Rat brain glioma) = assay: cells; settings: Rattus norvegicus
Procedure: as §1, §4, §5

Hep3B = assay: cells; settings: Homo sapiens
Procedure: as §1, §4, §5

HeLa = assay: cells; settings: Homo sapiens
Procedure: as §1, §4, §5

normal FL cells = assay: cells; settings: FL normal cells, MTT
Procedure: as §1, §4, §5

in vitro = settings: human, LC50
Procedure: as §1, §4, §5

MIC (E. coli ATCC 25922): 1000 µg/mL (≈ 2360 µM)
MIC [2]: > 1000 µg/mL
MIC [3]: 62.5 µg/mL (≈ 147 µM)
MIC ([3]; Staphylococcus aureus, 24 h, read-out: MIC): 62.5 to 125 µg/mL (≈ 147 to 294 µM)
MIC [4]: <7.81 µg/mL
MIC ([4]; Staphylococcus aureus, read-out: MIC): < 7.81 µg/mL
MIC (E. coli ESBL ATCC 35218): > 1000 µg/mL
MIC (S. mutans ATCC 35668): 250 µg/mL (≈ 589 µM)
GI50 (MCF7; MCF7, MTT): 1.7 µg/mL (≈ 4.01 µM)
IC50 (MCF7; MCF7, MTT, read-out: IC50): > 500 µg/mL
GI50 (A549; A549, MTT): > 500 µg/mL
IC50 (A549; A549, MTT, read-out: IC50): > 500 µg/mL
GI50 (HT29; HT-29, HT29, MTT): 4.43 µg/mL (≈ 10.4 µM)
IC50 (HT29; HT-29, HT29, MTT, read-out: IC50): 42.5 µg/mL (≈ 100 µM)
GI50 (C6 (Rat brain glioma); C6, MTT): 8.71 µg/mL (≈ 20.5 µM)
IC50 (C6 (Rat brain glioma); C6, MTT, read-out: IC50): 49 µg/mL (≈ 115 µM)
GI50 (Hep3B; MTT): 6.38 µg/mL (≈ 15 µM)
IC50 (Hep3B; MTT, read-out: IC50): > 500 µg/mL
GI50 (HeLa; MTT): 14.1 µg/mL (≈ 33.2 µM)
IC50 (HeLa; MTT, read-out: IC50): 81.3 µg/mL (≈ 191 µM)
Compound: Cc1ccc(-c2cc(-c3cccnc3)nc(N[C@@H]3O[C@H](CO)[C@@H](O)[C@H](O)[C@H]3O)n2)cc1 [Compound 8, N-[4-(4-methylphenyl)-6-pyridin-3-ylpyrimidin-2-yl]-β-D-glucopyranosylamine]
cytotoxicity at 24 h, 25 μg/mL ([1]; HT29, 25 μg/mL): 20.6%
cytotoxicity at 24 h, 50 μg/mL ([1]; HT29, 50 μg/mL): 34.5%
cytotoxicity at 24 h, 75 μg/mL ([1]; HT29, 75 μg/mL): 75.8%
cytotoxicity at 24 h, 100 μg/mL ([1]; HT29, 100 μg/mL): 95.9%
cytotoxicity at 24 h, 25 μg/mL ([5]; 25 μg/mL): 12.5%
cytotoxicity at 24 h, 50 μg/mL ([5]; 50 μg/mL): 35%
cytotoxicity at 24 h, 75 μg/mL ([5]; 75 μg/mL): 42%
cytotoxicity at 24 h, 100 μg/mL ([5]; 100 μg/mL): 49%
cytotoxicity at 24 h, 25 μg/mL ([6]; C6, 25 μg/mL): 28.4%
cytotoxicity at 24 h, 50 μg/mL ([6]; C6, 50 μg/mL): 45.4%
cytotoxicity at 24 h, 75 μg/mL ([6]; C6, 75 μg/mL): 63.2%
cytotoxicity at 24 h, 100 μg/mL ([6]; C6, 100 μg/mL): 88.7%
LC50 (concentration causing 50% net cell loss relative to time zero) (MCF7; MCF7, read-out: LC50): > 500 µg/mL
IC (total growth inhibition) (MCF7; MCF7, MTT, read-out: TGI): > 500 µg/mL
LC50 (concentration causing 50% net cell loss) (A549; A549, read-out: LC50): > 500 µg/mL
IC (total growth inhibition) (A549; A549, MTT, read-out: TGI): > 500 µg/mL
LC50 (concentration giving 50% net cell loss relative to time zero) (HT29; HT-29, read-out: LC50): > 500 µg/mL
IC (total growth inhibition) (HT29; HT-29, HT29, MTT, read-out: TGI): 60 µg/mL
LC50 (concentration giving 50% net cell loss relative to time zero) (C6 (Rat brain glioma); read-out: LC50): 225 µg/mL (≈ 530 µM)
IC (total growth inhibition) (C6 (Rat brain glioma); C6, MTT, read-out: TGI): 30.7 µg/mL
IC (total growth inhibition) (Hep3B; MTT, read-out: TGI): > 500 µg/mL
LC50 (concentration causing 50% net cell loss relative to time zero) (Hep3B; read-out: LC50): > 500 µg/mL
IC (total growth inhibition) (HeLa; MTT, read-out: TGI): 50.1 µg/mL
LC50 (concentration causing 50% net cell loss) (HeLa; read-out: LC50): 325 µg/mL (≈ 766 µM)
GI50 (normal FL cells): 5.64 µg/mL (≈ 13.3 µM)
IC50 (normal FL cells; read-out: IC50): > 500 µg/mL
IC (total growth inhibition) (normal FL cells; read-out: TGI): > 500 µg/mL
LC50 (concentration causing 50% net cell loss) (in vitro): > 500 µg/mL
